Measured values reported in ChEMBL document CHEMBL1155906, “Structural modifications of N-arylamide oxadiazoles: Identification of N-arylpiperidine oxadiazoles as potent and selective agonists of CB2” (Bioorg Med Chem Lett, 2008).
Values after ≈ are worked out from the molar mass of the structure shown.

Legend:
Cannabinoid receptor 1 [1] = target: T1, Cannabinoid receptor 1 (Homo sapiens, UniProt P21554); test: Agonist activity at human CB1 receptor expressed in insect Sf9 cells assessed as effect on Eu-GTP binding
Cannabinoid receptor 2 [2] = target: T2, Cannabinoid receptor 2 (Homo sapiens, UniProt P34972); test: Agonist activity at human CB2 receptor expressed in insect Sf9 cells assessed as effect on Eu-GTP binding
Substance-P receptor [3] = target: T3, Substance-P receptor (Homo sapiens, UniProt P25103); test: Inhibition of NK1 receptor
Histamine H1 receptor [4] = target: T4, Histamine H1 receptor (Homo sapiens, UniProt P35367); test: Agonist activity at histamine H1 receptor; format: functional
Cannabinoid receptor 2 [5] = target: T2, Cannabinoid receptor 2; test: Agonist activity at human CB2 receptor assessed as inhibition of forskolin-induced increase in intracellular cAMP; format: functional, cell-based
[6] = Clearance in Sprague-Dawley rat at 0.5 mg/kg, iv; format: ADME, organism-based; design: dose 0.5 mg/kg, route intravenous; conditions: in vivo
[7] = target: T5, Beta-1 adrenergic receptor (Homo sapiens, UniProt P08588); test: Agonist activity at adrenergic beta-1 receptor; format: functional
Histamine H1 receptor [8] = target: T4, Histamine H1 receptor; test: Inhibition of histamine H1 receptor
[9] = Solubility in simulated intestinal fluid; format: physicochemical
[10] = target: T6, 5-hydroxytryptamine receptor 2B (Homo sapiens, UniProt P41595); test: Inhibition of 5HT2B receptor
Cannabinoid receptor 2 [11] = target: T2, Cannabinoid receptor 2; test: Agonist activity at human CB2 receptor expressed in insect Sf9 cells assessed as effect on Eu-GTP binding relative to CP-55940
[12] = Metabolic stability in human liver microsome assessed as intrinsic clearance; format: ADME; conditions: liver microsomes
Substance-P receptor [13] = target: T3, Substance-P receptor; test: Agonist activity at NK1 receptor; format: functional
[14] = target: T7, Somatostatin receptor type 4 (Homo sapiens, UniProt P31391); test: Agonist activity at sst4 receptor; format: functional
human MDR1 (P-gp) = test: Apparent permeability across pig LLC-PK1 cells transfected with human MDR1 at 5 uM in presence of 0.1% BSA; format: ADME, cell-based, Sus scrofa
[15] = Solubility in phosphate buffer saline; format: physicochemical; conditions: phosphate buffered saline
Cannabinoid receptor 1 [16] = target: T1, Cannabinoid receptor 1; test: Agonist activity at human CB1 receptor expressed in insect Sf9 cells assessed as effect on Eu-GTP binding relative to CP-55940
[17] = target: T8, Muscarinic acetylcholine receptor M1 (Homo sapiens, UniProt P11229); test: Agonist activity at muscarinic M1 receptor; format: functional
T8 sequence (P11229 whole entry): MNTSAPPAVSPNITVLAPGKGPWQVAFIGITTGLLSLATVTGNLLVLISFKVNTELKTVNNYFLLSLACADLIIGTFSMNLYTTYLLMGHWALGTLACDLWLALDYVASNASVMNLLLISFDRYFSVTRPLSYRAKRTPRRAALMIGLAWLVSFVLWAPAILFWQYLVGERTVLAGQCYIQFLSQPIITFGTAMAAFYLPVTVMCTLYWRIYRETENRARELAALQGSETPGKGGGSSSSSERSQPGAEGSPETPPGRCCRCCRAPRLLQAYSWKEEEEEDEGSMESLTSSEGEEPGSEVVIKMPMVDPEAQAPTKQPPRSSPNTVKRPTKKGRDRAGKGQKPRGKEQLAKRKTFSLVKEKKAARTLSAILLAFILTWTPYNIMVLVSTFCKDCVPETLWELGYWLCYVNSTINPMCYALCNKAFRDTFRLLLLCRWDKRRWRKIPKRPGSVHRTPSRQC

Mu-type opioid receptor [18] = target: T9, Mu-type opioid receptor (Homo sapiens, UniProt P35372); test: Agonist activity at mu opioid receptor; format: functional
[19] = Apparent permeability across pig wild-type LLC-PK1 cells at 5 uM in presence of 0.1% BSA; format: ADME, cell-based, Sus scrofa
[20] = target: T8, Muscarinic acetylcholine receptor M1; test: Inhibition of muscarinic M1 receptor
[21] = target: T6, 5-hydroxytryptamine receptor 2B; test: Agonist activity at 5HT2B receptor; format: functional
[22] = Inhibition of adrenergic alpha1 receptor
[23] = Agonist activity at CCR2b receptor; format: functional
[24] = Inhibition of CXR2 receptor
[25] = Inhibition of CCR2b receptor
[26] = AUC (0 to 24 hrs) in Sprague-Dawley rat at 10 mg/kg, po; format: ADME, organism-based; design: time < 24 hr, dose 10 mg/kg, route oral; conditions: plasma
[27] = Metabolic stability in rat liver microsome assessed as intrinsic clearance; format: ADME; conditions: liver microsomes
Cannabinoid receptor 1 [28] = target: T1, Cannabinoid receptor 1; test: Agonist activity at human CB1 receptor assessed as inhibition of forskolin-induced increase in intracellular cAMP relative to CP-55940; format: functional, cell-based
[29] = Cmax in Sprague-Dawley rat at 10 mg/kg, po; format: ADME, organism-based; design: dose 10 mg/kg, route oral; conditions: in vivo
[30] = target: T10, 5-hydroxytryptamine receptor 1A (Homo sapiens, UniProt P08908); test: Inhibition of 5HT1A receptor
T10 sequence (P08908 whole entry): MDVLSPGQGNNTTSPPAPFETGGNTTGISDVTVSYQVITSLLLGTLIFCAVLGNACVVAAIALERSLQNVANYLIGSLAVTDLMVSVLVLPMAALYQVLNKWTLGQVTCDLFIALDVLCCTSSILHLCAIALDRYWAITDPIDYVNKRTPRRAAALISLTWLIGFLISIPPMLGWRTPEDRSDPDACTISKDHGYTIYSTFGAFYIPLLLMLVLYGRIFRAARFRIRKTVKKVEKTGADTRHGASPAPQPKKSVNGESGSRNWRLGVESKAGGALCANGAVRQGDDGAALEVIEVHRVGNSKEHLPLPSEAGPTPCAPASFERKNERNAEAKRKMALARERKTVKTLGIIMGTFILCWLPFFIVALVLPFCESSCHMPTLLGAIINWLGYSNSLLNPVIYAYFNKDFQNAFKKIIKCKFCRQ

[31] = Bioavailability in Sprague-Dawley rat at 10 mg/kg, po; format: ADME, organism-based; conditions: in vivo
[32] = target: Voltage-gated inwardly rectifying potassium channel KCNH2 (Homo sapiens, UniProt Q12809); test: Displacement of radiolabeled dofetilide from human ERG
Mu-type opioid receptor [33] = target: T9, Mu-type opioid receptor; test: Inhibition of mu opioid receptor
Cannabinoid receptor 2 [34] = target: T2, Cannabinoid receptor 2; test: Agonist activity at human CB2 receptor assessed as inhibition of forskolin-induced increase in intracellular cAMP relative to CP-55940; format: functional, cell-based
[35] = Agonist activity at CXR2 receptor; format: functional
[36] = target: T10, 5-hydroxytryptamine receptor 1A; test: Agonist activity at 5HT1A receptor; format: functional
LLC-PK1 [37] = test: Ratio of permeability from basolateral to apical side to apical to basolateral side in pig LLC-PK1 cells expressing human MDR1 at 5 uM in presence of 0.1% BSA; format: ADME, cell-based, Sus scrofa; conditions: llc-pk1, 5 µM
[38] = target: T5, Beta-1 adrenergic receptor; test: Inhibition of adrenergic beta-1 receptor
LLC-PK1 [39] = test: Ratio of permeability from basolateral to apical side to apical to basolateral side in pig wild-type LLC-PK1 cells at 5 uM in presence of 0.1% BSA; format: ADME, cell-based, Sus scrofa; conditions: llc-pk1, 5 µM
[40] = Solubility in 0.01 N HCl; format: physicochemical
D(2) dopamine receptor [41] = target: T11, D(2) dopamine receptor (Homo sapiens, UniProt P14416); test: Inhibition of dopamine D2 receptor
[42] = Half life in Sprague-Dawley rat at 0.5 mg/kg, iv; format: ADME, organism-based; design: dose 0.5 mg/kg, route intravenous; conditions: in vivo
Cannabinoid receptor 1 [43] = target: T1, Cannabinoid receptor 1; test: Agonist activity at human CB1 receptor assessed as inhibition of forskolin-induced increase in intracellular cAMP; format: functional, cell-based
[44] = Agonist activity at adrenergic alpha1 receptor; format: functional
[45] = Volume of distribution at steady state in Sprague-Dawley rat at 0.5 mg/kg, iv; format: ADME, organism-based; design: dose 0.5 mg/kg, route intravenous; conditions: in vivo, read-out: Vdss
[46] = target: T7, Somatostatin receptor type 4; test: Inhibition of sst4 receptor
D(2) dopamine receptor [47] = target: T11, D(2) dopamine receptor; test: Agonist activity at dopamine D2 receptor; format: functional

T1 sequence (P21554 whole entry): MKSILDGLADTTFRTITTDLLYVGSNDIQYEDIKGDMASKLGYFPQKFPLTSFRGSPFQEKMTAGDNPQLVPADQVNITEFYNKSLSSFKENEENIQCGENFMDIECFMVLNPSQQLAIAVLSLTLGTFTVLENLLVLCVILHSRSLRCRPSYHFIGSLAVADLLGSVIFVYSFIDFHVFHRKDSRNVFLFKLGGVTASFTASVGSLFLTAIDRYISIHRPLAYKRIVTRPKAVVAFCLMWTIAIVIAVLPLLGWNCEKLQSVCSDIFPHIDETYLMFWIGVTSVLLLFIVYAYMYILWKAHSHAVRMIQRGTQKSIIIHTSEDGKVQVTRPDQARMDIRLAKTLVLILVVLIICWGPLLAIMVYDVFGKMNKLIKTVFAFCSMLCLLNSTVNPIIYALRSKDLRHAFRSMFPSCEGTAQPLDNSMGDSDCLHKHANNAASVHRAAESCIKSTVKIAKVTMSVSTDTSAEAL
T2 sequence (P34972 whole entry): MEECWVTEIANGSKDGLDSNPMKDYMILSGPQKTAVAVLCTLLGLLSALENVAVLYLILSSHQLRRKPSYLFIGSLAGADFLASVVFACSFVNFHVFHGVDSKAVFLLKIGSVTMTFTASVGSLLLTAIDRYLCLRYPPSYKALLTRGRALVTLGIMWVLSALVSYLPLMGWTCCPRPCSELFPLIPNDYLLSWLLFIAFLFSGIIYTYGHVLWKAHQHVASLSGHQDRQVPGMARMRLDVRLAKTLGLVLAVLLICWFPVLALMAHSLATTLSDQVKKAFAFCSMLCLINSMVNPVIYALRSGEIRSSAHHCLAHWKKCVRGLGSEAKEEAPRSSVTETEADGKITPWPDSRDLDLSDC
T6 sequence (P41595 whole entry): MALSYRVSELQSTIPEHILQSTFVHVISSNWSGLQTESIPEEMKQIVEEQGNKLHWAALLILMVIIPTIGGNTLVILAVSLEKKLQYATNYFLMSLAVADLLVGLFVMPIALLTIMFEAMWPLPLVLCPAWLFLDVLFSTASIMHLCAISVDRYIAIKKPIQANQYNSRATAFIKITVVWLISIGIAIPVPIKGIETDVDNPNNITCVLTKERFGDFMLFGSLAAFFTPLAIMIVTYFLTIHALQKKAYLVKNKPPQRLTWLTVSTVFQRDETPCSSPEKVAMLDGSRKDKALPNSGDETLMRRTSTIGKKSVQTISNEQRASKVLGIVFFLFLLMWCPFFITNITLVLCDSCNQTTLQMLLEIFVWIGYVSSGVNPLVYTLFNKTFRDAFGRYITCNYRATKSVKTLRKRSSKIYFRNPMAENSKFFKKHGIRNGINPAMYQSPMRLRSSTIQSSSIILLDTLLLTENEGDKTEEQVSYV
T7 sequence (P31391 whole entry): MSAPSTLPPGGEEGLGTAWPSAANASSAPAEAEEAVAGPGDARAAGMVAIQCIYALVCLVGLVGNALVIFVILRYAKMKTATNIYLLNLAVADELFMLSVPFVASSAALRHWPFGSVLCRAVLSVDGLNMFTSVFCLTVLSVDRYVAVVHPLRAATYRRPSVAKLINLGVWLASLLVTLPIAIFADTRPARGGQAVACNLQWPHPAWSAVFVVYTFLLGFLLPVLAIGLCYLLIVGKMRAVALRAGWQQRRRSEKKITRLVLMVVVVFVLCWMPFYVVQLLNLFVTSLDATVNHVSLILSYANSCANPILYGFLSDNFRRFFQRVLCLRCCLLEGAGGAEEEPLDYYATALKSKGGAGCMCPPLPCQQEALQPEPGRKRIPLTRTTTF
T3 sequence (P25103 whole entry): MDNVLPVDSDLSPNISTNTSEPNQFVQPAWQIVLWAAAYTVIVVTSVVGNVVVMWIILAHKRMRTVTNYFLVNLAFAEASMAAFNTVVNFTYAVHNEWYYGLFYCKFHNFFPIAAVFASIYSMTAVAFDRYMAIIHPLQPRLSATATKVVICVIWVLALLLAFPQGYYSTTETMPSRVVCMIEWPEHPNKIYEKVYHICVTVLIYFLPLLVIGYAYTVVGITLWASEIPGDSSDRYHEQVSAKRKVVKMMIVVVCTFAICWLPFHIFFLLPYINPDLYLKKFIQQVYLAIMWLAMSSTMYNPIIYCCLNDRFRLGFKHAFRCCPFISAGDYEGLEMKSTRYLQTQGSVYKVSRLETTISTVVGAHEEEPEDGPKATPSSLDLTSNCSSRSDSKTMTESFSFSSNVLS
T9 sequence (P35372 whole entry): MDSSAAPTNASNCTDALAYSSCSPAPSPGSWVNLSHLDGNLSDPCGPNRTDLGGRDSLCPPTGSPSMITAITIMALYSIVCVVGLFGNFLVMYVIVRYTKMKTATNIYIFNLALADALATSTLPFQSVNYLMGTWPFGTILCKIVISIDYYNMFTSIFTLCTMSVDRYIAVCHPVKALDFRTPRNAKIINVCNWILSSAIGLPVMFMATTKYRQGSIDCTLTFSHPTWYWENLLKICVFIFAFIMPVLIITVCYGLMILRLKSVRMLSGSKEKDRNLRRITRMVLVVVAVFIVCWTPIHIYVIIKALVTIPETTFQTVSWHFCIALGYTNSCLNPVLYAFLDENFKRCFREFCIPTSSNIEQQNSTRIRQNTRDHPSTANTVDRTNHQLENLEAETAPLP
T5 sequence (P08588 whole entry): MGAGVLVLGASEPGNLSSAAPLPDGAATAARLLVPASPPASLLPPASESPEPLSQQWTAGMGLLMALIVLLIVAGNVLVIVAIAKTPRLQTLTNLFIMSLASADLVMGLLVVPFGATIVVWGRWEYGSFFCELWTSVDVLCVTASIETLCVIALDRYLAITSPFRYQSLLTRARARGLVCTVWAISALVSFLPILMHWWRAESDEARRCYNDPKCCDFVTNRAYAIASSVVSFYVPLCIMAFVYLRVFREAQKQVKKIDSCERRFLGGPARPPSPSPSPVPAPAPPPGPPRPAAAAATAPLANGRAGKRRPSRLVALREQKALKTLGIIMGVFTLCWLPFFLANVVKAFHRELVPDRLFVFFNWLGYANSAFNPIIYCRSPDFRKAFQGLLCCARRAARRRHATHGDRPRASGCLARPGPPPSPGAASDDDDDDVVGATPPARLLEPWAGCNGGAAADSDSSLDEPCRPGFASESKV
T11 sequence (P14416 whole entry): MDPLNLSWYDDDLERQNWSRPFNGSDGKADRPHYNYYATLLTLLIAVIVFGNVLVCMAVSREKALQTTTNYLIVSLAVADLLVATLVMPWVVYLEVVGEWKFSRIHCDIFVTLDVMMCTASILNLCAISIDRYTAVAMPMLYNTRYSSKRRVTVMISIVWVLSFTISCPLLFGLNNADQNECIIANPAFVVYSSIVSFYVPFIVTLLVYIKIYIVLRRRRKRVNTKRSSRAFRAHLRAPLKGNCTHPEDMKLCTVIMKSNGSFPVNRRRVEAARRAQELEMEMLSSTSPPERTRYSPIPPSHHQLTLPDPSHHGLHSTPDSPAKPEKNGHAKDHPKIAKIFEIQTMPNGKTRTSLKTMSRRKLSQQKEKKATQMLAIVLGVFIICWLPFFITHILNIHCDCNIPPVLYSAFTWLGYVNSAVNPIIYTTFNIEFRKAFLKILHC
T4 sequence (P35367 whole entry): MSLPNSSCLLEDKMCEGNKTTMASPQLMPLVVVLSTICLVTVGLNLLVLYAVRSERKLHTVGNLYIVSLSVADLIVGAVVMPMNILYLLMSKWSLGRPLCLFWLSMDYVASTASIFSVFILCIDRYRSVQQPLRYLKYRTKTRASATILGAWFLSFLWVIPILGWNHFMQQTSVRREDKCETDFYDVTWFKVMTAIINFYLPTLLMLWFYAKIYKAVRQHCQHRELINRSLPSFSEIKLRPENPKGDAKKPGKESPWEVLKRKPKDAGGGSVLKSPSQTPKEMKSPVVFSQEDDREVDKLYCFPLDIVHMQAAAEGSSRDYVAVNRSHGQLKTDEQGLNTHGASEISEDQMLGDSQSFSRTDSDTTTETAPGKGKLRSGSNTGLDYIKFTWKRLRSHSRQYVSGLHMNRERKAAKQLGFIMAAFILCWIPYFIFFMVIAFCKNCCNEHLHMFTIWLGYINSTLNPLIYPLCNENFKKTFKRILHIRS

With `Fc1ccc(-c2noc(C3CCN(c4cnc5ccc(Cl)cc5c4)CC3)n2)c(Cl)c1` the EC50 (Cannabinoid receptor 1 [1]) was 1430 nM, the EC50 (Cannabinoid receptor 2 [2]) was 7 nM and the IC50 (Substance-P receptor [3]) was > 50 µM. The EC50 (Histamine H1 receptor [4]) was > 50 µM, the EC50 (Cannabinoid receptor 2 [5]) was 11 nM and the clearance [6] was 0.65 mL/min/kg. The EC50 [7] was > 50 µM, the IC50 (Histamine H1 receptor [8]) was > 50 µM and the solubility [9] was 2 µg/mL (≈ 4.51 µM). For the same compound, the IC50 [10] was > 50 µM, the Emax (Cannabinoid receptor 2 [11]) was 120% and the microsomal CLint [12] was 38 µL/min/mg. For the same compound, the EC50 (Substance-P receptor [13]) was > 50 µM, the EC50 [14] was > 50 µM and the Papp at 5 µM (human MDR1 (P-gp)) was 10.7 ×10⁻⁶ cm/s. The solubility [15] was < 1 µg/mL, the Emax (Cannabinoid receptor 1 [16]) was 55% and the EC50 [17] was > 50 µM. For the same compound, the EC50 (Mu-type opioid receptor [18]) was > 50 µM, the Papp at 5 µM [19] was 9.95 ×10⁻⁶ cm/s and the IC50 [20] was > 50 µM. For the same compound, the EC50 [21] was > 50 µM, the IC50 [22] was > 50 µM and the EC50 [23] was > 50 µM. For the same compound, the IC50 [24] was > 50 µM, the IC50 [25] was > 50 µM and the AUC(0-t) at 24 h [26] was 5240 ng·h/mL. For the same compound, the microsomal CLint [27] was 32 µL/min/mg, the Emax (Cannabinoid receptor 1 [28]) was 19% and the Cmax [29] was 682 ng/mL. For the same compound, the IC50 [30] was > 50 µM, the bioavailability [31] was 2% and the IC50 [32] was 500 nM. For the same compound, the IC50 (Mu-type opioid receptor [33]) was > 50 µM, the Emax (Cannabinoid receptor 2 [34]) was 102% and the EC50 [35] was > 50 µM. The EC50 [36] was > 50 µM, the Ratio (LLC-PK1 [37]) was 0.9 and the IC50 [38] was > 50 µM. For the same compound, the Ratio (LLC-PK1 [39]) was 0.9, the solubility [40] was < 1 µg/mL and the IC50 (D(2) dopamine receptor [41]) was > 50 µM. For the same compound, the half-life [42] was 534 min, the EC50 (Cannabinoid receptor 1 [43]) was > 2000 nM and the EC50 [44] was > 50 µM. The Vd [45] was 0.365 L/kg, the IC50 [46] was > 50 µM and the EC50 (D(2) dopamine receptor [47]) was > 50 µM.
